Values quoted from earlier work, collected in patent US20090209641A1, “PHARMACEUTICAL COMPOSITION FOR ADMINISTRATION BY INJECTION” (priority 2006, published 2009).

solubility in water: 17 mg/mL
SMILES: N.N.O=C([O-])C1(C(=O)[O-])CCC1.[Pt+2] [carboplatinum]
